# Laboratory results taken from patent US20070105114A1, “Biomarkers of cyclin-dependent kinase modulation” (priority 2003, published 2007).
# Where a name gives a salt, the structure may show the parent alone. Read-outs that look alike come from different tables or passages of the source.
# Key:
# [1] = test system: W28729; assay: Clinical study CA174-002 (24 hr infusion), W28729 expression in patient PBMC by RT-PCR; format: in vivo, human; conditions: patients
# Description: (§1) Patient inclusion criteria: The patient inclusion criteria included: primary solid malignancy refractory to current therapy and adequate bone marrow, hepatic, and renal function. Treatments: Two different treatments were undertaken: (i) 174-001 Study: 1 hr infusion of BMS-387032 q 3 wks; and (ii) 174-002 Study: 24 hr infusion of BMS-387032 q 3 wks. The sampling times were pre-dose, and 2, 6, 24 hour post-dose. W28729 Expression Analysis: RT-PCR. Patient blood samples were collected in PAXgene™ Blood Collection Tubes (Qiagen, catalog #762155). Total RNA was isolated following the manufacturer's instructions using a PAXgene™ blood RNA Kit (Qiagen, catalog #762134). W28729 and GAPDH (housekeeping gene) RNA abundance was measured by Taqman assays, using an ABI PRISM 7900 HT Sequence Detection System. W28729 abundance was normalized relative to GAPDH. Primer and probe sequences are as shown below.
# [2] = test system: A2780 ovarian carcinoma cells; assay: Clonogenic growth assay (colony formation); format: cell-based, human; conditions: for IC50 / IC90: Homo sapiens, A2780, A2780s Clonogenic assay; for IC50: read-out: IC50, inhibition of colony formation; for IC90: read-out: IC90, inhibition of colony formation
# Description: Clonogenic Growth Assay: The colony growth inhibition was measured for the A2780 ovarian carcinoma cells using a standard clonogenic assay. In this assay, 200 cells/well were seeded into 6-well tissue culture plates (Falcon™) (Becton, Dickinson and Company, Franklin Lakes, N.J., USA) and allowed to attach for 18 hours. Assay medium consisted of RPMI-1640 plus 10% fetal bovine serum. Cells were then treated in duplicate with a six concentration dose-response curve. The maximum concentration of DMSO never exceeded 0.25%. Cells were exposed to the cdk2 inhibitor for 4, 8, or 24 hours. The cdk2 inhibitor was then removed and the cells were washed with 2 volumes of PBS. The normal growth medium was then replaced. Colonies were fed with fresh media every third day. Colony number was scored on day 10-14 using a Optimax imaging station. The cdk2 inhibitor concentration required to inhibit 50% or 90% of colony formation (IC50 or IC90, respectively) was determined by non-linear regression analysis. The coefficient of variance (standard deviation/mean, n=3)=30%. Treatment of A2780 and PBMC was carried out as described above. The doses of the cdk2 inhibitor were derived from an understanding of the kinetics of tumor cell growth inhibition by the cdk2 inhibitor as assessed by proliferation and clonogenic assays (Table 3). […] A minimal exposure of 8 hours was required for effective inhibition of colony formation. The values obtained from the 24 hour clonogenic assay were in good agreement with the 72 hour proliferation assay.
# [3] = test system: W28729; assay: W28729 expression in human ovarian carcinoma xenograft A2780 tumors in nude mice; format: in vivo, mouse
# Description: The human ovarian carcinoma xenograft A2780s were maintained in Balb/c nu/nu nude mice. Tumors were propagated as subcutaneous (sc) transplants using tumor fragments obtained from donor mice. For the cdk2 inhibitor treatment, tumors were allowed to grow to the pre-determined size window of approximately 100-200 mg (tumors outside the range were excluded) and animals were evenly distributed to various treatment and control groups (n=6). Treatment of each animal was based on individual body weight. The cdk2 inhibitor was first dissolved in a mixture of Cremophor®/ethanol (50:50). One hour prior to administration, the cdk2 inhibitor was diluted with water so that the dosing solutions contained the specified excipient composition, i.e., Cremophor®/ethanol/water (1:1:8, v/v). The volume of all compounds injected was 0.01 ml/gm of mice. The cdk2 inhibitor was administered as a bolus injection intraperitoneal at doses of 36 and 18 mg/kg. Tumor and plasma were sampled at the time points of 4, 7, and 24 hour post treatment. Plasma sample was frozen immediately at −80° C. for pharmacokinetic analysis, and tumor sample was preserved in RNAase free buffer for pharmacogenomic analysis. The biomarker W28729 (SEQ ID NO: 1246) was selected as a preferred marker. A same-well multiplex real-time quantitative PCR assay on this biomarker with normalization control, house-keeping gene GAPDH, was developed using Taq-man MGB probes. Gene expression changes for W28729 were measured with real-time quantitative PCR assays in the following sample sets: A2780 human tumor cell line treated with 20 nM of cdk2 inhibitor for different durations (FIG. 3A), PBMC treated with 10n-M cdk2 inhibitor at 4 hours (FIG. 3B); and human ovarian carcinoma xenograft A2780 treated with cdk2 inhibitor at doses of 36 and 18 mg/kg for different durations (FIG. 3C). […] At the minimum efficacious dose (MED) of 18 mg/kg/day, the induction was sustained for more than 6 hours. In an infusion regimen using the minimum efficacious dose of 40 mg/kg, gene induction was sustained for at least 16 hours. […] Treatment with an efficacious regimen results in >2 fold induction of the sequence for 6 hours or longer. […] In addition, these observations support the use of PBMC as a surrogate tissue for monitoring changes in gene expression, that result from treatment with the cdk2 inhibitor.
# [4] = test system: A2780s; assay: 72 hr XTT proliferation assay; format: cell-based; conditions: Homo sapiens, 72 hr. XTT assay
# Description: Treatment of A2780 and PBMC was carried out as described above. The doses of the cdk2 inhibitor were derived from an understanding of the kinetics of tumor cell growth inhibition by the cdk2 inhibitor as assessed by proliferation and clonogenic assays (Table 3). […] A minimal exposure of 8 hours was required for effective inhibition of colony formation. The values obtained from the 24 hour clonogenic assay were in good agreement with the 72 hour proliferation assay.
# [5] = test system: W28729; assay: Clinical study CA174-001 (1 hr infusion), W28729 expression in patient PBMC by RT-PCR; format: in vivo, human; conditions: patients
# Description: as §1
structure (smiles),measurement,setting,value
"CC(C)(C)c1cnc(CSc2cnc(NC(=O)C3CCNCC3)s2)o1 [cdk2 inhibitor, N-5-[[5-(1,1-Dimethylethyl)-2-oxazolyl]methyl]thio]-2-thiazolyl-4-piperidinecarboxamide, 0.5-L-tartaric acid salt]",W28729 induction in PBMC,[1],modest induction of W28729 expression
same,time W28729 induction was sustained following end of infusion,[1],6 h
same,minimal exposure required for effective inhibition of colony formation,[2]; A2780s,8 h
same,"growth inhibition, dependence on exposure time","[2]; A2780s, proliferation and clonogenic assays",time dependent
same,IC50,[2]; 4 hr. exposure,302 nM
same,IC90,[2]; 4 hr. exposure,> 1000 nM
same,IC50,[2]; 8 hr. exposure,154 nM
same,IC90,[2]; 8 hr. exposure,303 nM
same,IC50,[2]; 24 hr. exposure,166 nM
same,IC90,[2]; 24 hr. exposure,208 nM
same,pattern of W28729 induction in the tumors,"[3]; A2780 xenografts, bolus i.p. treatments","transient, dose-dependent manner"
same,duration of sustained W28729 induction,"[3]; A2780 xenografts, bolus i.p., MED of 18 mg/kg/day",more than 6 hours
same,duration of sustained gene induction,"[3]; A2780 xenografts, infusion regimen, 40 mg/kg",at least 16 hours
same,induction of the sequence,"[3]; efficacious regimen, for 6 hours or longer",> 2 fold
same,duration of W28729 gene induction versus dose,"[3]; nude mice bearing A2780 xenografts, 36 and 18 mg/kg",dose-dependent prolongation of the duration of gene induction
same,induction of W28729 in tumor,"[3]; nude mice bearing A2780 xenografts, efficacious doses (36 and 18 mg/kg)",induction of W28729
same,IC50,[4],95 nM
same,IC90,[4],170 nM
same,time of return of W28729 to baseline levels,[5]; 1 hour infusion,≤ 6 h
same,W28729 induction in PBMC,"[5]; 1 hour infusion, at 2 hours",transient induction of W28729
same,relationship between W28729 gene induction and dose or exposure (AUC),[5]; CA174-001,linear relationship
